Experiments:
Notch = details: 4 hours on SVEP1 vs BSA
Protocol: Cells were collected, resuspended in SFM, and incubated for 1 hr with gentle agitation before seeding on tissue culture wells that were precoated and blocked, as described in previous sections. Cells were collected for analysis after 4 hr of growth on the indicated substrate. Svep1SMC+/+ and Svep1SMCΔ/Δ VSMCs were collected for analysis after 72 hr of incubation in SFM to obtain basal Notch signaling.

platelets = test system: platelets
Protocol: Complete blood counts (CBC) and washed platelet counts were determined using a hematology analyzer Element HT5 (Heska, Loveland). […] For flow cytometry, diluted whole blood or isolated platelets were pre-incubated with their respective fluorescent antibodies for 15 minutes and fixed. For murine whole blood: CD41-VioBlue, CD61-PE (Mitlenyi Biotec, Bergisch Gladbach, Germany), CD42b-DL649, GPVI-FITC (Emfret, Eibelstadt, Germany) and for human whole blood and isolated platelets: CD41-FITC, CD61-APC, CD42b-PE (Biolegend, San Diego), GPVI-BV421 617 (BD, Franklin Lakes). Platelet surface receptor levels were quantified by flow cytometry on a 618 CytoFlex analyzer.

SVEP1: recombinant murine SVEP1 extracellular matrix protein with Myc and poly-histidine tag, expressed in 293F cells
expression of canonical Notch targets Hey2 and Hes 1 (Notch): significantly increased expression
platelet aggregation and agglutination (platelets; platelets from mice compared to humans): notably milder
platelet aggregation (decrease in whole blood platelet count) (platelets; soluble recombinant SVEP1, human whole blood): induced spontaneous platelet aggregation and agglutination
